Source: patent US20160101048A1, “+L-CARNOSINE ZINC FORMULATIONS AND METHODS OF USE” (priority 2014, published 2016)

Experiments:
[1] = tested on: ulcer tissue; conditions: chelate versus simple mixture; cited from earlier work
[2] = Particle size distribution of polymeric L-carnosine zinc; assay type: physicochemical; conditions: L-carnosine zinc used in Comparative Example 1
Experimental: Step 2) Polymeric L-carnosine zinc with a particle size range of about 0.1 micron to about 85 microns, with a particle distribution such that 90% of the particles are 24.925 microns or smaller, 50% are 5.664 microns or smaller, and 10% are 0.826 or smaller, and the mean diameter was 9.878 microns was added to the hydrogel prepared in Step 1 to produce a composite polymeric hydrogel consisting of 150 mg L-carnosine zinc suspended in 5 ml of hydrogel.

Question: Which results are given for “N-(3-aminopropionyl)-L-histidinatozinc [L-carnosine zinc]”?
Answer: effectiveness compared with co-administration of a zinc salt together with L-carnosine [1]: more effective than the co-administration of a zinc salt together with L-carnosine in a simple mixture; mean diameter [2]: 9.878 microns; particle distribution, 10% of the particles are this size or smaller [2]: ≤ 0.826; particle distribution, 50% of the particles are this size or smaller [2]: ≤ 5.664 microns; particle distribution, 90% of the particles are this size or smaller [2]: ≤ 24.925 microns
